Experimental data: patent EP2905621B1, “MEANS AND METHODS FOR DIAGNOSING AND TREATING CDG CAUSED BY A DEFICIENCY OF PGM1” (Westfälische Wilhelms-Universität Münster, priority 2014, dated 2015)

Legend:
skin fibroblasts = test: Evaluation of glycogen by electron microscopy in fibroblasts; type: cell-based, human; conditions: 5.5 mM sugar in medium, 50 h
Protocol: For electron microscopy, skin fibroblasts of patients and controls were cultured to a confluence of 50 to 70% in M199 medium (Life Technologies) supplemented with 10% fetal calf serum and 1% penicillin/streptomycin in a humidified atmosphere containing 5% CO2 at 37°C. Cells were switched to a medium consisting of DMEM supplemented with 4mM L-glutamine (Invitrogen), 10% dialyzed FCS (Gibco), 1mM uridine (Calbiochem), and either 5.5 mM D-glucose (Sigma), or 5.5 mM D-Galactose (Merck). After 50 h of incubation, cells were centrifuged for 10 min at 1000rpm and fixed by gentle addition of 2% glutaraldehyde buffered with 0.1 M sodium cacodylate pH7.4 after removing the medium. After at least 4h fixation, the pellets were very carefully taken off and post-fixed in 1% osmium tetroxide in Palade buffer pH 7.4 with 1% potassium hexacyanoferrate(III)-trihydrate, and after dehydration in ethanol and propylene oxide, embedded in Epon for electron microscopy. Semithin 1µm thick transverse sections were stained with 1% Toluidine Blue. Ultrathin sections were stained with uranyl acetate and lead citrate and examined on a JEOL 1200 EX\II. […] Cells with small darkly staining aggregates of glycogen were counted as positive. Fibroblasts were prepared for evaluation of glycogen by electron microscopy as described above. The presence of glycogen in control and patient fibroblasts cultured in the presence of either glucose or galactose was assessed by electron microscopy. Cells (of 115-160 total) with small darkly staining aggregates of glycogen were counted as positive. Aggregates are typically more common in glycogen storage diseases (picture for hepatocytes s. Fig. 7, panel C, D).

[1] = Dietary supplementation in patients: hormones and clinical course; type: in vivo, human; conditions: for levels of luteinizing hormone, increased by a factor of: initially 2.5th percentile
Protocol: (§1) Galactose powder was supplied by Falcento. Galactose levels in whole blood were determined in a healthy volunteer after the oral consumption of 250 ml of water in which 0.3 g of galactose per kilogram of body weight had been dissolved. Measurements of galactose levels in blood were made by means of spectrophotometry at intervals of 10 minutes during the first hour and at intervals of 30 minutes for an additional 3 hours. Lactose or galactose supplementation was administered as an aqueous solution at a dose of 0.5 to 1.0 g per kilogram per day, divided into three to six daily doses (on the basis of patient preference).

total serum N-glycome = test: Dietary supplementation in patients: total serum N-glycome by capillary electrophoresis; type: in vivo, human; conditions: patients with galactose supplementation
Text: • Figure 1. Glycoprotein Biosynthesis and Congenital Disorders of Glycosylation. For the N-glycosylation of proteins, a glycan precursor is assembled from monosaccharide units on an anchoring isoprenoid alcohol, dolichol, in the membrane of the endoplasmic reticulum. Each glycan precursor is then transferred en bloc to a specific asparagine residue in the nascent peptide chain of a protein being synthesized by a ribosome and entering the endoplasmic reticulum. Because transferrin (brown line) is abundant in blood, it is used as an indicator of the efficiency of the glycosylation system. Transferrin has two glycosylation sites. The protein is transported to the Golgi apparatus, and the glycans are modified in multiple steps. Each fully modified glycan is terminated with two negatively charged sialic acid residues. Thus, the transferrin molecule carries a total of four sialic acid residues. If a genetic defect impairs synthesis of the precursor glycan in the endoplasmic reticulum, one or both glycosylation sites of transferrin may remain unoccupied (white arrow). Such defects are classified as congenital disorders of glycosylation type I (CDG-I). […] CDG-I defects are easily identified owing to the occurrence of transferrin isoforms with two or no sialic acid residues detected by means of IEF. […]

transferrin = test: Dietary supplementation in patients: transferrin glycosylation; type: in vivo, human; conditions: for transferrin glycosylation by mass spectrometry: six patients, 0.5 to 1.0 g per kilogram per day, within 2 weeks
Protocol: (§2) Analysis of transferrin glycosylation was performed on serum samples with the use of isoelectric focusing, (3,4) sodium dodecyl sulfate-polyacrylamide-gel electrophoresis (SDS-PAGE), (3) or liquid chromatography-mass spectrometry (9) (Fig. 3, and the Examples II). […] Green fluorescent protein engineered for retention in the endoplasmic reticulum was modified to contain an N-glycosylation site that, when glycosylated, causes loss of fluorescence (Glyc-ER-GFP). (11) Glyc-ER-GFP was transfected into patient fibroblasts in culture, and fluorescence was measured by means of quantitative microscopy (see the Examples II).
as §1
For high-resolution mass spectrometry of transferrin (Fig. 3), a 5 µl serum sample was incubated with anti-transferrin beads as described.^8 The eluate was analyzed on a microfluidic 6540 LC-chip-QTOF instrument (Agilent Technologies) using a C8 protein chip. Data analysis was performed using Agilent Mass Hunter Qualitative Analysis Software B.04.00. The Agilent BioConfirm Software was used to deconvolute the charge distribution of raw data to reconstructed mass data. For confirmation of the structural annotations, samples were processed for analysis of tryptic transferrin peptides by MALDI-TOF as described^9 (results not shown).

[2] = tested on: PGM1-deficient fibroblasts; test: Assay for cellular glycosylation efficiency using modified GFP (Glyc-ER-GFP); type: cell-based, human; conditions: fibroblasts from patients, galactose alone added to culture medium
Protocol: as §2
Glycosylation efficiency was measured using Glyc-ER-GFP constructs as described.^11 In brief, cells were seeded in a 96 wells-plate at 40% confluence. 24h later, they were incubated in medium without or with addition of supplements (e.g. 0-1 mM galactose +/-100µM uridine) for 2 days with medium replacement every day. Cells were then transfected by the Glyc-ER-GFP and maintained in the same culture media for two more days. Cells were fixed using 4% paraformaldehyde/4% sucrose and stained by Hoechst 33342 (Thermo scientific). Plates were analyzed using a high-content microscope, IN Cell 1000 (GE Healthcare), and data were analyzed with the CytoSeer software (Vala Sciences) using a protein mask.

[3] = Determination of galactose kinetics in whole blood after oral galactose; type: in vivo, human; conditions: healthy volunteer, oral 0.3 g of galactose per kilogram of body weight in 250 ml water
Protocol: as §1
Enzymatic determination of galactose levels in whole blood was performed using exogenous galactose dehydrogenase (galactose + NAD^+ → galactono-1,4-lactone + NADH + H^+). Galactose levels were determined in a healthy control after oral consumption of 0.3 g galactose (falcento AG, Kreuzlingen, Switzerland) per kilogram body weight dissolved in 250 ml water. Measurements of galactose levels were made at intervals of 10 minutes during the first hour and at intervals of 30 minutes for additional three hours.
3000 µl of galactose buffer reagent (Instruchemie, Delfzijl, Netherlands), 100 µl of galactose NAD reagent (Instruchemie) and 200 µl of a diluted calibrator (Instruchemie) were mixed and the absorbance against distilled water was read at a temperature of 25 °C and a wavelength of 340 nm (optical density 1).
500 µl of each whole blood sample were added to 1000 µl perchloric acid (0.33 mol/l) for deproteinization and then centrifuged. 200 µl of the supernatant were added to 3000 µl galactose buffer reagent, 100 µl galactose NAD reagent and absorbance was read (optical density 1). After supplementation of 20 µl galactose start reagent and incubation at 25 °C for 15 min, the optical density 2 was measured in both, the calibrator and blood samples.
For manual calculation of the galactose concentration the following formula was used: galactose(mmol/l) = (ΔO.D.controlorsample)/(ΔO.D.calibrator) × concentrationofcalibrator [formula]

[4] = Patients 2 and 6, after initiation of galactose treatment

O=C[C@H](O)[C@@H](O)[C@@H](O)[C@H](O)CO [galactose]
% of cells with glycogen aggregates (skin fibroblasts; Control 1 fibroblasts): 2% | % of cells with glycogen aggregates (skin fibroblasts; Control 2 fibroblasts): 4% | % of cells with glycogen aggregates (skin fibroblasts; PGM1-6 patient fibroblasts): <1% | % of cells with glycogen aggregates (skin fibroblasts; PGM1-7 patient fibroblasts): <1% | levels of luteinizing hormone, increased by a factor of ([1]; Patient 2, after initiation of galactose supplementation): 5 | levels of luteinizing hormone, increased by a factor of ([1]; Patient 6, after initiation of galactose supplementation): 10 | hypogonadotropic hypogonadism ([1]; Patients 2 and 6, after initiation of galactose supplementation): resolved within a few weeks | cardiac function [1, 4]: remained stable | episodes of rhabdomyolysis [1, 4]: no further episodes | ultrasonography of the liver ([1]; Patients 2 and 6, every 3 months during galactose supplementation): no increase in echogenicity and no signs of cholestasis | levels of follicle-stimulating hormone (FSH) ([1]; Patients 2 and 6, galactose supplementation): normalized | glycosylation of the total serum N-glycome (total serum N-glycome): substantial improvement | tetrasialo-transferrin (transferrin; Patient 1.1, daily 0.5 g per kg b.w. in 3 portions, doubled after one week, HPLC, within a few weeks, 50 before): 70% | transferrin glycosylation by mass spectrometry (transferrin): improved substantially | glycosylation of Glyc-ER-GFP [2]: substantially enhanced | plasma concentration of galactose, maximum [3]: 700 µM | time after which galactose decreased to baseline levels [3]: 2 h | time of maximum galactose concentration [3]: 50 min

OC[C@H]1O[C@@H](O[C@H]2[C@H](O)[C@@H](O)C(O)O[C@@H]2CO)[C@H](O)[C@@H](O)[C@H]1O (stereo partly shown) [lactose]
transferrin glycosylation by mass spectrometry (transferrin): improved substantially
